# How the values were obtained:
# B16-F10 = experiment: Cytotoxicity against mouse B16F10 cells assessed as reduction of resazurin after 48 hrs by fluorimetry; assay type: functional, cell-based; details: B16-F10, 48 h
# HT-29 = experiment: Cytotoxicity against human HT-29 cells assessed as reduction of resazurin after 48 hrs by fluorimetry; assay type: functional, cell-based; details: HT-29, 48 h
smiles,measurement,setting,value
CC(=C/C(=O)c1ccc[nH]1)/C=C/[C@H](O)[C@@]1(C)CC[C@H](C(C)(C)O)O1 [GLYCIAPYRROLE A],IC50,B16-F10,180 µM
same,IC50,HT-29,180 µM

# Reference: ChEMBL document CHEMBL1158771, “Glaciapyrroles A, B, and C, pyrrolosesquiterpenes from a Streptomyces sp. isolated from an Alaskan marine sediment” (J Nat Prod, 2005)
